The text below walks through data of patent US20180171411A1, “GFRalpha1 AS A BIOMARKER FOR CISPLATIN-INDUCED CHEMORESISTANCE AND METASTASIS” (THE BOARD OF REGENTS OF THE UNIVERSITY OF TEXAS SYSTEM, priority 2015, published 2018).

The assay relates to GFRα1-overexpressing MG-63 cells. The assay can be described thus: WST-1 cell viability of GFRα1-overexpressing osteosarcoma cells. It counts as cell-based, human. The protocol:
FIG. 3. GFRα1-induced autophagy enhances the chemoresistance of osteosarcoma cells induced by cisplatin. (a) Control and GFRα1-deficient MG-63 cells were transiently transfected with a mRFP-GFP tandem fluorescent-tagged LC3 (mRFP-GFP-LC3) vector and then treated with cisplatin (20μM) for 24 hr. Left, representative images of RFP-LC3 and GFP-LC3 puncta. Scale bar, 20 μm. Right, quantitative analysis of the number of yellow puncta and the number of RFP-LC3 puncta in the combined images. The values are represented as a mean±s.d.m. (n=3). ** denotes p<0.05 by t-test. (b) Control and GFRα1-deficient MG-63 cells were treated with cisplatin (20 μM) for 24 hr and then stained with acridine orange. Top, representative images of cells stained with acridine orange. Scale bar, 20 μm. Bottom, quantitative analysis of the number of AVOs. The values are represented as a mean±s.d.m. (n=3). ** denotes p<0.05 by t-test. (c) Control and GFRα1-deficient MG-63 cells were treated with cisplatin (20 μM) for 24 hr and then analyzed by TEM. Top, representative images of autophagic vacuoles (yellow arrows) detected after cisplatin treatment in control MG-63 cells. Scale bar, 100 nm. Bottom, quantitative analysis of the number of autophagic vacuoles. The values are represented as a mean±s.d.m. (n=3). ** denotes p<0.05 by t-test. (d) Immunoblot analysis of control and GFRα1-overexpressing osteosarcoma cell lysates with antibodies specific for GFRα1, LC3 and β-actin. […] (e) Quantitative analysis of the number of yellow puncta and the number of RFP-LC3 puncta in control and GFRα1-overexpressing MG-63 cells. […] Bottom, quantitative analysis of the number of AVOs. […] (h) Control and GFRα1-overexpressing MG-63 cells were treated with cisplatin (20 μM) for 24 hr and then analyzed by TEM. Top, representative images of autophagic vacuoles detected after cisplatin treatment in control and GFRα1-overexpressing MG-63 cells. […] Bottom, quantitative analysis of the number of autophagic vacuoles. […] Cell viability was measured using the WST-1 assay. […] Cell viability was measured using the WST-1 assay. […]
For orientation: Tetrazolium dyes change colour on reduction, which living cells bring about.

`Cn1cnc(N)c2ncnc1-2` [3-MA, 3-methyladenine]: the “increase of cell proliferation in GFRα1 overexpressing cells” value (with DMSO, 3-MA or Baf, then cisplatin 20 μM 24 hr) is recorded as “blocked”.

B1: GDNF: glial cell line-derived neurotrophic factor, the major ligand of GFRα1 (protein, UniProt P39905 78-211, looked up)
Glial cell line-derived …: SPDKQMAVLPRRERNRQAAAANPENSRGKGRRGQRGKNRGCVLTAIHLNVTDLGLGYETKEELIFRYCSGSCDAAETTYDKILKNLSRNRRLVSDKVGQACCRPIAFDDDLSFLDDNLVYHILRKHSAKRCGCI
As for B1, under “Cisplatin+GDNF (50 ng/ml), 24 h”, the “GFRα1-mediated cell survival after cisplatin treatment” value was “did not have an effect”.
